SMILES strings stand for the structures.

This note sets out measurements from ChEMBL document CHEMBL6109048, “Innovative design and potential applications of covalent strategy in drug discovery” (Eur J Med Chem, 2025).

For experiment [1], the target named is Cyclin-dependent kinase 3 (Homo sapiens, UniProt Q00526). The experiment in a line: Inhibition of recombinant CDK3 (unknown origin).
For another experiment, the target named is T1, Cathepsin G (Homo sapiens, UniProt P08311).
T1 sequence (P08311 whole entry): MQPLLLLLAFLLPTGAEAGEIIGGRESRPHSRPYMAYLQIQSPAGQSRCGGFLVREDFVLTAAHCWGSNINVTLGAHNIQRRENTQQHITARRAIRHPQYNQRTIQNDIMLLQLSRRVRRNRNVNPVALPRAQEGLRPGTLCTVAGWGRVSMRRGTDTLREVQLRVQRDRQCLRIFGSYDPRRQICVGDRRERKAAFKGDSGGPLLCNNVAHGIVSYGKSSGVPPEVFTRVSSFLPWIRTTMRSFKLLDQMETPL
The experiment in a line: Inhibition of human Cathepsin G.

For experiment [2], the target named is T2, Tyrosine-protein kinase JAK3 (Homo sapiens, UniProt P52333).
T2 sequence (P52333 whole entry): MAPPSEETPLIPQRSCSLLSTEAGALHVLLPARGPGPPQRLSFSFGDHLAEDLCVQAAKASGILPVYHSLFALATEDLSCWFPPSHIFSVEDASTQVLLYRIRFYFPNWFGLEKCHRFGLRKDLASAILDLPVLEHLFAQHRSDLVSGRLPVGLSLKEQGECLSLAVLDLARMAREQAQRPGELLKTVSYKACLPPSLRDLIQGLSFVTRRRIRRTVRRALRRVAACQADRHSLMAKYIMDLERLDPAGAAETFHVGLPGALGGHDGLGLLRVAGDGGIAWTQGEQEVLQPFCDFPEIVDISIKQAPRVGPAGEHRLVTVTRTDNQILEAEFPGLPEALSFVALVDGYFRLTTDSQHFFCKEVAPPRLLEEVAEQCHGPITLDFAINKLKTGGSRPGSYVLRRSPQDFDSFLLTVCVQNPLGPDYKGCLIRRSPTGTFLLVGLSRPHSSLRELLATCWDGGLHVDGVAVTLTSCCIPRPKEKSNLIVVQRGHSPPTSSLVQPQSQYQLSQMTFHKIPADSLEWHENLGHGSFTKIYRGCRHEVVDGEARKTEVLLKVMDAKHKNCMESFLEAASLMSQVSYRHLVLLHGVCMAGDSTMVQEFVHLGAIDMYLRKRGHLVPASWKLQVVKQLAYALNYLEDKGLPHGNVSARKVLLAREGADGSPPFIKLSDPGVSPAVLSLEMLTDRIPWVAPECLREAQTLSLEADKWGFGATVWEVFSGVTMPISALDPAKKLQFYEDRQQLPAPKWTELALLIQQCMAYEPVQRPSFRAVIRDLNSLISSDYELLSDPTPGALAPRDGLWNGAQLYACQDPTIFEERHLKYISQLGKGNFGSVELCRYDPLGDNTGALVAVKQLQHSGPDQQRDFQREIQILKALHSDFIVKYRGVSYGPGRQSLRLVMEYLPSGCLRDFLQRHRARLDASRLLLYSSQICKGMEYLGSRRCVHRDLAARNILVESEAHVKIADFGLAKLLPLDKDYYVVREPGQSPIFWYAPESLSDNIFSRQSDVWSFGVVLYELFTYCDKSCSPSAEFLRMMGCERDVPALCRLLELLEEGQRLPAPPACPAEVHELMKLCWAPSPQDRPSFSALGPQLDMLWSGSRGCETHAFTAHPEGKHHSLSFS
The experiment in a line: Inhibition of JAK3 (unknown origin).

Experiment [3] deals with Epidermal growth factor receptor (Homo sapiens, UniProt P00533). Briefly: Inhibition of EGFR (unknown origin) by ADP-Glo kinase assay. (ADP-Glo first removes unused ATP, then detects ADP through luciferase.)
Experiment [4] concerns the target Tyrosine-protein kinase ABL1 (Homo sapiens, UniProt P00519). Briefly: Inhibition of 6His/SUMO- tagged human ABL1 (229 to 500 residues) extracted from Escherichia coli BL21 (DE3).
Experiment [5] has as its target Mast/stem cell growth factor receptor Kit (Homo sapiens, UniProt P10721). Briefly: Inhibition of c-KIT (unknown origin).
The target in the next experiment is SRSF protein kinase 1 (Homo sapiens, UniProt Q96SB4). Briefly: Inhibition of SRPK1 (unknown origin).
The next experiment deals with T3, Neutrophil elastase (Homo sapiens, UniProt P08246).
T3 sequence (P08246 whole entry): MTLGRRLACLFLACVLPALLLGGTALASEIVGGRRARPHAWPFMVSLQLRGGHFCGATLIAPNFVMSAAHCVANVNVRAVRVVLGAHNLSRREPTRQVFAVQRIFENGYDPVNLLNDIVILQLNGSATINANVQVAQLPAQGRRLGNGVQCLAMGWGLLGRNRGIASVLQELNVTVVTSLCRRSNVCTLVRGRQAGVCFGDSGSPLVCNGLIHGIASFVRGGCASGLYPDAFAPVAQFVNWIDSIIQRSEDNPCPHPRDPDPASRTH
Briefly: Inhibition of human neutrophil elastase.

Sequence of Mast/stem cell growth factor receptor Kit (P10721 whole entry): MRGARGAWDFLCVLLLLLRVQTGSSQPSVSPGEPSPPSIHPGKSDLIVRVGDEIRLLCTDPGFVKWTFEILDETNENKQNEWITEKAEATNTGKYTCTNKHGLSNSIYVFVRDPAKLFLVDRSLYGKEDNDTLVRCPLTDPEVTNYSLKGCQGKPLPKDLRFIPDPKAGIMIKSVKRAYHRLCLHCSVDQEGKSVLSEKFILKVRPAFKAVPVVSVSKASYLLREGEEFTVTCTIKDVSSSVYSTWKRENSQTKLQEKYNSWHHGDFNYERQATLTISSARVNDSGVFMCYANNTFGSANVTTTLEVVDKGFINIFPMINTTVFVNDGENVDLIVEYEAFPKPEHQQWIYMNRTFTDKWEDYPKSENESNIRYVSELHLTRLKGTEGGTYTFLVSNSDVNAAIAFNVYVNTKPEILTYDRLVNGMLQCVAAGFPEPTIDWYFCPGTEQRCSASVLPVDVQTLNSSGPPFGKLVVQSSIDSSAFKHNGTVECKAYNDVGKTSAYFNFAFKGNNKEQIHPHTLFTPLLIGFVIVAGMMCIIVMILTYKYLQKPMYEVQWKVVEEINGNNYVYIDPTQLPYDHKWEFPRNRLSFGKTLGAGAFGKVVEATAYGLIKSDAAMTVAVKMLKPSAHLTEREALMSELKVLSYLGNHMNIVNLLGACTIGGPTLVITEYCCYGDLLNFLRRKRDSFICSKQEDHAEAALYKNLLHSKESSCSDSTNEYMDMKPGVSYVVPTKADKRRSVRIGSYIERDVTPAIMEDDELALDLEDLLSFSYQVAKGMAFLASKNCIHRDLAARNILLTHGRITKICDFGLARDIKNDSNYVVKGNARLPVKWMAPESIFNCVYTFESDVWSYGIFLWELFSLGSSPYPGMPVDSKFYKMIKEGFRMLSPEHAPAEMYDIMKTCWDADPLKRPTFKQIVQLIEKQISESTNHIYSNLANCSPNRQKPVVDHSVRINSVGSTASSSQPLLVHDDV
Sequence of Cyclin-dependent kinase 3 (Q00526 whole entry): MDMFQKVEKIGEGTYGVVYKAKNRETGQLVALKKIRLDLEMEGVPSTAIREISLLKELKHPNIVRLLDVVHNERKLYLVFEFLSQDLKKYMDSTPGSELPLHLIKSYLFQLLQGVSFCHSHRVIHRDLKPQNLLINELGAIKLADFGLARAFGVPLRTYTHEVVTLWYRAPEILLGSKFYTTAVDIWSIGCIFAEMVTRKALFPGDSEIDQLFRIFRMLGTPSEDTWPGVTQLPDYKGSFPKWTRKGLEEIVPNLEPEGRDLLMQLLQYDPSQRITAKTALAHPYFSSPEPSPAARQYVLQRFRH
Sequence of Tyrosine-protein kinase ABL1 (P00519 whole entry, the tested form may be a part): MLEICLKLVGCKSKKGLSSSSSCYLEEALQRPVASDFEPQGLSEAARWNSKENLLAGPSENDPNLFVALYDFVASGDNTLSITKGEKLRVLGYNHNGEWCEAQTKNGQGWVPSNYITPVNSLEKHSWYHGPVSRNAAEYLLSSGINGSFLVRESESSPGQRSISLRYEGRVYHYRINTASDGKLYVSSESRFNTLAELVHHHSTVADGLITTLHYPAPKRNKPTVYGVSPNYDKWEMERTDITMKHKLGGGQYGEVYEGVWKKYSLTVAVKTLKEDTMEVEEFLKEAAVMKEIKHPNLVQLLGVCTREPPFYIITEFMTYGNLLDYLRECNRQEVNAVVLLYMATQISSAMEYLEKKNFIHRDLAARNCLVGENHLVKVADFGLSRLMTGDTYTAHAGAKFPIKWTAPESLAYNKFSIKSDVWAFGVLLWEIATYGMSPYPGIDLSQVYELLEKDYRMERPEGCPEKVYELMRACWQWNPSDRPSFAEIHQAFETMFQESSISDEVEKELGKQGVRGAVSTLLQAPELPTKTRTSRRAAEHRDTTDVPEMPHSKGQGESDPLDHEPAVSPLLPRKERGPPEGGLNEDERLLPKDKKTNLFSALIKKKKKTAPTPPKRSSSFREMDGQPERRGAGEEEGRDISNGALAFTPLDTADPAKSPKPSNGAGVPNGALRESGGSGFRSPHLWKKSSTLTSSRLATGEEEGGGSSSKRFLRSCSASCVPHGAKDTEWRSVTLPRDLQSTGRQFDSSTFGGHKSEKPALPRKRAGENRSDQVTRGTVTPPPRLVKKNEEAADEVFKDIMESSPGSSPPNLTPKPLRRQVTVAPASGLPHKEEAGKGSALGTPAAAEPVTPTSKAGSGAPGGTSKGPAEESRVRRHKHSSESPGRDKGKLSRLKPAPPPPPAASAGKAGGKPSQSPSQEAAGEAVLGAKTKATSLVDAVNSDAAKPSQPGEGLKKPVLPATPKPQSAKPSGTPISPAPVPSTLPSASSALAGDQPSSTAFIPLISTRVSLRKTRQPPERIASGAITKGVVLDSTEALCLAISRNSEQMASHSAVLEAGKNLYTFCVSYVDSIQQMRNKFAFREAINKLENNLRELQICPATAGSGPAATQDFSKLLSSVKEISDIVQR
Sequence of SRSF protein kinase 1 (Q96SB4 whole entry): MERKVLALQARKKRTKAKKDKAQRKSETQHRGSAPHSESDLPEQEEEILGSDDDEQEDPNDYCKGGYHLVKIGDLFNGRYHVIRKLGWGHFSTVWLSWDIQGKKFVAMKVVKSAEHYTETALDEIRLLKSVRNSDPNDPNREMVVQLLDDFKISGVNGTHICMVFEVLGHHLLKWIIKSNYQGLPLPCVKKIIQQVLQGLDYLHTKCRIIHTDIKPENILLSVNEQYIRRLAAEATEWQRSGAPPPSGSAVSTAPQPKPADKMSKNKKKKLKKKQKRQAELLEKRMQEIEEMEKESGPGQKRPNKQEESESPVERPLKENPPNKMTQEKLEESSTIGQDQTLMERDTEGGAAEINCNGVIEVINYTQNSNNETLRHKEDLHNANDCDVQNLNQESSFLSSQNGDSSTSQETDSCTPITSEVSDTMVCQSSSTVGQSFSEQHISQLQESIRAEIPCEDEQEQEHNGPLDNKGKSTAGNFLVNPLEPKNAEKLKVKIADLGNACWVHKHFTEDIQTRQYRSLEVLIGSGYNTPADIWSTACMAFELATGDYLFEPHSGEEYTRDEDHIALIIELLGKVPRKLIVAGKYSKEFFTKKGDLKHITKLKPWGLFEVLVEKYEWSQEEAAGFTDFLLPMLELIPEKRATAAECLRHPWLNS
Sequence of Epidermal growth factor receptor (P00533 whole entry, the tested form may be a part): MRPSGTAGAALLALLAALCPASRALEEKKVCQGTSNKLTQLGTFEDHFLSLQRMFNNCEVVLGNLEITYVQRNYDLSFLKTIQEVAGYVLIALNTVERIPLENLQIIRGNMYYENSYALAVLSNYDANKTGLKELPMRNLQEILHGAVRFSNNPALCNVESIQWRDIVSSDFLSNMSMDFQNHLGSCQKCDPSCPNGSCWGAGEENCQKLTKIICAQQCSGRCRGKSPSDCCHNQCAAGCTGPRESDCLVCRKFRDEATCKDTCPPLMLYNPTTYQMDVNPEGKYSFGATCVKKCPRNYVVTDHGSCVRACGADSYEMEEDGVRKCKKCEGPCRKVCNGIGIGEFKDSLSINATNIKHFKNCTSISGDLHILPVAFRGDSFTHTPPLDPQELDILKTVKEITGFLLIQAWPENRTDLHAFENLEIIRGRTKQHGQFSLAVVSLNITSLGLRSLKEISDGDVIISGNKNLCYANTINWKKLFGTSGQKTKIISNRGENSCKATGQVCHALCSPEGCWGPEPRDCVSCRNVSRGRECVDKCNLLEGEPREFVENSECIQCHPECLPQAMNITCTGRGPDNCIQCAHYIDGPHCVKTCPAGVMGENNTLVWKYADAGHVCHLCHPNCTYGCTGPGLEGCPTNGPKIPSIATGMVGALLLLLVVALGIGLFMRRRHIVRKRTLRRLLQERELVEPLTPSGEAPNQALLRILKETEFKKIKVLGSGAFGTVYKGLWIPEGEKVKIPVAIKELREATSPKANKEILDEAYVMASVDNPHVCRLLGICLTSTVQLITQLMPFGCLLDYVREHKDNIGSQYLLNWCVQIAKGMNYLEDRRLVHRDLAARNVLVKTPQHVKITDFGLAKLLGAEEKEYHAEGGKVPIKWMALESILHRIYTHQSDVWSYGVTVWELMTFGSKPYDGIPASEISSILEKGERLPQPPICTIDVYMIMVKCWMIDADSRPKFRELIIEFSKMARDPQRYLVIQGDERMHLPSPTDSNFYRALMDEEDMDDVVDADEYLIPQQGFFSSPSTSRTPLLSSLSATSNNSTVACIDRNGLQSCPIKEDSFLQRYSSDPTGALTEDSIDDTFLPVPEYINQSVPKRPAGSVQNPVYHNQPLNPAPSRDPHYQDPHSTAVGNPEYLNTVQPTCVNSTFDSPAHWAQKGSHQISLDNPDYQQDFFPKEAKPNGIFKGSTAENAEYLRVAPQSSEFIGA

As to `CN(C)C/C=C/C(=O)Nc1ccc(C(=O)N2CCCC(Nc3ncc(Cl)c(-c4c[nH]c5ccccc45)n3)C2)cc1` (centres undefined), in experiment [1], the 50% inhibitory concentration (IC50) (usually the concentration needed to halve the response being measured) worked out at 0.069 µM. With `O=S(=O)(F)Oc1ccccc1S(=O)(=O)F`, the IC50 against Cathepsin G was over 0.2 µM. As to `CC#CC1Nc2cc(Nc3nccc(C4CN(C)c5ccccc54)n3)ccc2C(C)(C)O1` (centres undefined), in experiment [2], the IC50 amounted to 0.06 µM.

Consider `C#Cc1cc(Nc2ncnc3cc(OCCOC)c(OCCOC)cc23)ccc1C=O`, for which the half-inhibitory concentration (IC50) in experiment [3] was found to be 0.0482 µM.

As to `C#Cc1cc(OC)c(-c2ccc3nc(NC(=O)NCCO)sc3c2)cc1C=O`, in experiment [4], the half-inhibitory concentration (IC50) is 0.0024 µM. For `CC#CC1=Nc2cc(NC(=O)Cc3ncc(Oc4ccnc5cc(OC)ccc45)cc3OC)ccc2C(C)(C)O1`, the 50% inhibitory concentration (IC50) in experiment [5] was found to be 2.08 µM.

In turn, `CCc1cc2c(cc1-c1cc[nH]n1)C(C)(C)C1Cc3cc(C#N)ccc3C1C2=O` (centres undefined) returned an IC50 against SRSF protein kinase 1 of 0.00115 µM. In the case of `O=S(=O)(F)c1ccccc1S(=O)(=O)F`, the results for the IC50 against Neutrophil elastase and against Cathepsin G were 3.3 µM and 0.19 µM, respectively.
